Measured values as given in patent US4299767A, “Benzodiazepine derivatives” (Hoffmann-La Roche Inc., priority 1978, dated 1981).

Columns and labels:
[1] = tested on: intestinal resorption of cholesterol; assay: inhibition of the intestinal resorption of cholesterol (cholesterol recovery, CHOREC); format: in vivo, normal female Fullinsdorf albino rats; conditions: rats
Experimental: The compounds to be tested are administered to groups of 6 normal female Fullinsdorf albino rats (body weight about 70 g) by oral intubation. This is followed immediately by oral intubation of a test meal containing radioactive cholesterol. Consecutively, feces are collected for three days, freeze dried and pulverized. An aliquot is burned for evaluation of fecal radioactivity. Controls excrete about 40-50% of the dietary radioactive cholesterol called cholesterol recovery (CHOREC) and arbitrarily set 100%. Animals treated with a substance inhibiting the intestinal resorption of cholesterol show a higher excretion of radioactive cholesterol in comparison with controls. The cholesterol recovery (CHOREC) of treated animals is expressed in % of controls.
(§1) The following Table contains results obtained with the aforementioned particularly preferred compounds inhibiting the intestinal resorption of cholesterol. For each of these compounds there are given the dose(s) administered (in μMol/kg p.o) as well as the cholesterol recovery (CHOREC), expressed in % of controls. Moreover, the Table contains data relating to the acute toxicity of the compounds investigated (LD 50 in mg/kg in the case of a single oral administration to rats): […]

[2] = acute toxicity, single oral administration to rats; conditions: rat, in vivo, p.o.
Description: as §1

Structure (SMILES) | cholesterol recovery (CHOREC), in % of controls ([1]; 10 μMol/kg p.o.) [%] | cholesterol recovery (CHOREC), in % of controls ([1]; 30 μMol/kg p.o.) [%] | cholesterol recovery (CHOREC), in % of controls ([1]; 100 μMol/kg p.o.) [%] | cholesterol recovery (CHOREC), in % of controls ([1]; 300 μMol/kg p.o.) [%] | cholesterol recovery (CHOREC), in % of controls ([1]; 1000 μMol/kg p.o.) [%] | LD50 [2] [mg/kg]
CC1N=C(c2ccccc2F)c2c(ccc(NC(=O)NCCO)c2Br)N(C)C1=O (racemic) [Example 50, rac-1-[6-bromo-5-(o-fluorophenyl)-2,3-dihydro-1,3-dimethyl-2-oxo-1H-1,4-benzodiazepin-7-yl]-3-(2-hydroxyethyl)urea] | 132 | 160 | 155 | 169 | 189 | > 5000
CN1C(=O)CN=C(c2ccccc2F)c2c1ccc(NC(=O)N1CCOCC1)c2Cl [Example 51, N-[6-chloro-5-(o-fluorophenyl)-2,3-dihydro-1-methyl-2-oxo-1H-1,4-benzodiazepin-7-yl]-4-morpholinecarboxamide] | – | – | – | – | 186 | 1250 to 2500
